# Assay results as given in patent US20240150293A1, “SPIROCYCLOHEXANE DERIVATIVES, PHARMACEUTICAL COMPOSITIONS CONTAINING THEM AND THEIR USES AS ANTI-APOPTOTIC INHIBITORS” (LES LABORATOIRES SERVIER, priority 2021, published 2024).
# pKi: −log10 of the molar value.
# Biological target: Mcl-1 protein (UniProtKB Q07820) (Homo sapiens (Human), UniProt Q07820)
# Assay: Inhibition of Mcl-1 by the fluorescence polarisation assay (Example A, Method A)
# Format: binding
# Details: fluorescence polarization assay
# In short: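 Protein (5 nM) and fluorescein-tagged peptide tracer (1 nM) incubated with 11-point compound series for 2 h at room temperature in HEPES/NaCl/Tween 20 buffer, pH 7.4, 5% DMSO. Displacement read as decrease in polarisation; IC50 fitted by 4-parameter logistic, converted to Ki (cKi or eKi).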
# Chain of Mcl-1 protein (Q07820 whole entry): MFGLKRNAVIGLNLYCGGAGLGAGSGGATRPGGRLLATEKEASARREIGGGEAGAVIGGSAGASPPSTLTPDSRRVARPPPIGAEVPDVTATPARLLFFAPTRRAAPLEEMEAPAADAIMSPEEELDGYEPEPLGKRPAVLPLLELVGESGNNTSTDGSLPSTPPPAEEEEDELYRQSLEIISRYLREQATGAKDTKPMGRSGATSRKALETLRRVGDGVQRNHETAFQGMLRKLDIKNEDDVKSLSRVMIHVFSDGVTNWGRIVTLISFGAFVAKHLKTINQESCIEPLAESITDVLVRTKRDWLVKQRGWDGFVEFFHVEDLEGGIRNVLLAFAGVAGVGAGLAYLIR
row,pKi,SMILES
1,5.72,"O=C(O)[C@]1(Nc2cccc(Cl)c2)CC[C@@]2(CC1)c1ccccc1CC2c1ccc(OCc2ccncc2)cc1 (single isomer, unassigned) [Example 369, (1r,4r)-4-(3-chloroanilino)-2′-{4-[(pyridin-4-yl)methoxy]phenyl}-2′,3′-dihydrospiro[cyclohexane-1,1′-indene]-4-carboxylic acid]"
2,6.70,"O=C(O)[C@]1(Nc2cccc(Cl)c2)CC[C@@]2(CC1)c1ccccc1CC2c1cccc(OCc2cccnc2)c1 (single isomer, unassigned) [Example 372, (1r,4r)-4-(3-chloroanilino)-2′-{3-[(pyridin-3-yl)methoxy]phenyl}-2′,3′-dihydrospiro[cyclohexane-1,1′-indene]-4-carboxylic acid]"
3,6.66,"O=C(O)[C@]1(Nc2cccc(Cl)c2)CC[C@@]2(CC1)c1ccccc1CC2c1cccc(OCc2ccncc2)c1 (single isomer, unassigned) [Example 373, (1r,4r)-4-(3-chloroanilino)-2′-{3-[(pyridin-4-yl)methoxy]phenyl}-2′,3′-dihydrospiro[cyclohexane-1,1′-indene]-4-carboxylic acid]"
4,6.72,"O=C(O)[C@]1(Nc2cccc(Cl)c2)CC[C@@]2(CC1)c1ccccc1CC2c1cccc(Oc2cccnc2)c1 (single isomer, unassigned) [Example 374, (1r,4r)-4-(3-chloroanilino)-2′-{3-[(pyridin-3-yl)oxy]phenyl}-2′,3′-dihydrospiro[cyclohexane-1,1′-indene]-4-carboxylic acid]"
5,6.57,"O=C(O)[C@]1(Nc2cccc(Cl)c2)CC[C@@]2(CC1)c1ccccc1CC2c1cccc(Oc2ccncc2)c1 (single isomer, unassigned) [Example 376, (1r,4r)-4-(3-chloroanilino)-2′-{3-[(pyridin-4-yl)oxy]phenyl}-2′,3′-dihydrospiro[cyclohexane-1,1′-indene]-4-carboxylic acid]"
6,5.51,"COc1ccc2c(c1)[C@]1(CC[C@@](Nc3cccc(Cl)c3)(C(=O)O)CC1)C(c1cccc(Oc3ccccc3)c1)C2 (single isomer, unassigned) [Example 379, (1r,4r)-4-(3-chloroanilino)-6′-methoxy-2′-(3-phenoxyphenyl)-2′,3′-dihydrospiro[cyclohexane-1,1′-indene]-4-carboxylic acid]"
7,5.11,"CN(CCc1ccncc1)C(=O)C1Cc2ccccc2[C@]12CC[C@@](Nc1cccc(Cl)c1)(C(=O)O)CC2 (single isomer, unassigned) [Example 404, (1r,4r)-4-(3-chloroanilino)-2′-{methyl[2-(pyridin-4-yl)ethyl]carbamoyl}-2′,3′-dihydrospiro[cyclohexane-1,1′-indene]-4-carboxylic acid]"
8,4.82,"O=C(NCCc1ccccc1)C1Cc2ccccc2[C@]12CC[C@@](Nc1cccc(Cl)c1)(C(=O)O)CC2 (single isomer, unassigned) [Example 405, (1r,4r)-4-(3-chloroanilino)-2′-[(2-phenylethyl)carbamoyl]-2′,3′-dihydrospiro[cyclohexane-1,1′-indene]-4-carboxylic acid]"
9,5.21,"O=C(NCCc1ccccc1)C1Cc2ccccc2[C@]12CC[C@@](Nc1cccc(Cl)c1)(C(=O)O)CC2 (single isomer, unassigned) [Example 406, (1r,4r)-4-(3-chloroanilino)-2′-[(2-phenylethyl)carbamoyl]-2′,3′-dihydrospiro[cyclohexane-1,1′-indene]-4-carboxylic acid]"
10,5.86,"CN(CCc1ccccc1)C(=O)C1Cc2ccccc2[C@]12CC[C@@](Nc1cccc(Cl)c1)(C(=O)O)CC2 (single isomer, unassigned) [Example 407, (1r,4r)-4-(3-chloroanilino)-2′-[methyl(2-phenylethyl)carbamoyl]-2′,3′-dihydrospiro[cyclohexane-1,1′-indene]-4-carboxylic acid]"
11,5.37,"CN(CCc1ccccc1)C(=O)C1Cc2ccccc2[C@]12CC[C@@](Nc1cccc(Cl)c1)(C(=O)O)CC2 (single isomer, unassigned) [Example 408, (1r,4r)-4-(3-chloroanilino)-2′-[methyl(2-phenylethyl)carbamoyl]-2′,3′-dihydrospiro[cyclohexane-1,1′-indene]-4-carboxylic acid]"
12,7.94,"O=C(O)[C@]1(Nc2cccc(Cl)c2)CC[C@@]2(CC1)c1ccccc1CC2CC(COCCN1CCOCC1)COc1ccnc2c1CCC2 (single isomer, unassigned) [Example 495, (1r,4r)-4-(3-chloroanilino)-2′-(2-{[(6,7-dihydro-5H-cyclopenta[b]pyridin-4-yl)oxy]methyl}-3-[2-(morpholin-4-yl)ethoxy]propyl)-2′,3′-dihydrospiro[cyclohexane-1,1′-indene]-4-carboxylic acid]"
13,5.82,"CC(C)C(COc1ccncc1)CC1Cc2ccccc2[C@]12CC[C@@](Nc1cccc(Cl)c1)(C(=O)O)CC2 (single isomer, unassigned) [Example 534, (1r,4r)-4-(3-chloroanilino)-2′-(3-methyl-2-{[(pyridin-4-yl)oxy]methyl}butyl)-2′,3′-dihydrospiro[cyclohexane-1,1′-indene]-4-carboxylic acid]"
14,7.48,"CC1CCc2nccc(OC[C@H](C)CC3Cc4ccccc4[C@]34CC[C@@](Nc3cccc(Cl)c3)(C(=O)O)CC4)c21 (single isomer, unassigned) [Example 601]"
15,4.63,"O=C(O)[C@]1(Nc2cccc(Br)c2)CC[C@@]2(CC1)C(=O)Nc1ccccc12 [Example 1, (1r,4r)-4-(3-bromoanilino)-2′-oxo-1′,2′-dihydrospiro[cyclohexane-1,3′-indole]-4-carboxylic acid]"
16,5.12,"CCN1c2ccccc2[C@]2(CC[C@](Nc3cccc(Br)c3)(C(=O)O)CC2)C1=O [Example 2, (1r,4r)-4-(3-bromoanilino)-1′-ethyl-2′-oxo-1′,2′-dihydrospiro[cyclohexane-1,3′-indole]-4-carboxylic acid]"
17,4.89,"O=C(O)C1(Nc2cccc(Br)c2)CCC2(CC1)CNc1ccccc12 (centres unmarked) [Example 3, 4-(3-bromoanilino)-1′,2′-dihydrospiro[cyclohexane-1,3′-indole]-4-carboxylic acid]"
18,5.23,"CN1CC2(CCC(Nc3cccc(Br)c3)(C(=O)O)CC2)c2ccccc21 (centres unmarked) [Example 4, 4-(3-bromoanilino)-1′-methyl-1′,2′-dihydrospiro[cyclohexane-1,3′-indole]-4-carboxylic acid]"
19,4.66,"CN1c2ccc(I)cc2[C@]2(CC[C@](Nc3cccc(Br)c3)(C(=O)O)CC2)C1=O [Example 5, (1r,4r)-4-(3-bromoanilino)-5′-iodo-1′-methyl-2′-oxo-1′,2′-dihydrospiro[cyclohexane-1,3′-indole]-4-carboxylic acid]"
20,5.00,"CN1c2ccc(Br)cc2[C@]2(CC[C@](Nc3cccc(Br)c3)(C(=O)O)CC2)C1=O [Example 6, (1r,4r)-5′-bromo-4-(3-bromoanilino)-1′-methyl-2′-oxo-1′,2′-dihydrospiro[cyclohexane-1,3′-indole]-4-carboxylic acid]"
21,4.62,"Cc1ccc2c(c1)[C@]1(CC[C@](Nc3cccc(Br)c3)(C(=O)O)CC1)C(=O)N2C [Example 7, (1r,4r)-4-(3-bromoanilino)-1′,5′-dimethyl-2′-oxo-1′,2′-dihydrospiro[cyclohexane-1,3′-indole]-4-carboxylic acid]"
22,4.65,"CCc1ccc2c(c1)[C@]1(CC[C@](Nc3cccc(Br)c3)(C(=O)O)CC1)C(=O)N2C [Example 8, (1r,4r)-4-(3-bromoanilino)-5′-ethyl-1′-methyl-2′-oxo-1′,2′-dihydrospiro[cyclohexane-1,3′-indole]-4-carboxylic acid]"
23,5.32,"CN1c2ccc(/C=C/c3ccccc3)cc2[C@]2(CC[C@](Nc3cccc(Br)c3)(C(=O)O)CC2)C1=O [Example 9, (1r,4r)-4-(3-bromoanilino)-1′-methyl-2′-oxo-5′-[(E)-2-phenylethenyl]-1′,2′-dihydrospiro[cyclohexane-1,3′-indole]-4-carboxylic acid]"
24,4.97,"CN1c2ccc(-c3ccccc3)cc2[C@]2(CC[C@](Nc3cccc(Br)c3)(C(=O)O)CC2)C1=O [Example 10, (1r,4r)-4-(3-bromoanilino)-1′-methyl-2′-oxo-5′-phenyl-1′,2′-dihydrospiro[cyclohexane-1,3′-indole]-4-carboxylic acid]"
25,5.19,"CN1c2ccc(CCc3ccccc3)cc2[C@]2(CC[C@](Nc3cccc(Br)c3)(C(=O)O)CC2)C1=O [Example 11, (1r,4r)-4-(3-bromoanilino)-1′-methyl-2′-oxo-5′-(2-phenylethyl)-1′,2′-dihydrospiro[cyclohexane-1,3′-indole]-4-carboxylic acid]"
26,4.91,"C/C=C/c1ccc2c(c1)[C@]1(CC[C@](Nc3cccc(Br)c3)(C(=O)O)CC1)C(=O)N2C [Example 12, (1r,4r)-4-(3-bromoanilino)-1′-methyl-2′-oxo-5′-[(1E)-prop-1-en-1-yl]-1′,2′-dihydrospiro[cyclohexane-1,3′-indole]-4-carboxylic acid]"
27,5.15,"O=C(O)[C@]1(Nc2cccc(Br)c2)CC[C@@]2(CC1)C(=O)N(Cc1ccccc1)c1ccccc12 [Example 13, (1r,4r)-1′-benzyl-4-(3-bromoanilino)-2′-oxo-1′,2′-dihydrospiro[cyclohexane-1,3′-indole]-4-carboxylic acid]"
28,4.94,"CN1c2ccc(C3CC3)cc2[C@]2(CC[C@](Nc3cccc(Br)c3)(C(=O)O)CC2)C1=O [Example 15, (1r,4r)-4-(3-bromoanilino)-5′-cyclopropyl-1′-methyl-2′-oxo-1′,2′-dihydrospiro[cyclohexane-1,3′-indole]-4-carboxylic acid]"
29,4.64,"CN1c2ccccc2[C@]2(CC[C@@](Nc3cccc(Br)c3)(C(=O)O)CC2)C1=O [Example 17, (1s,4s)-4-(3-bromoanilino)-1′-methyl-2′-oxo-1′,2′-dihydrospiro[cyclohexane-1,3′-indole]-4-carboxylic acid]"
